Results published in the supplement of paper PMC10627819.

What was measured:
Test in all cases: Bliss interaction score (quartile over a dose matrix) (fitness difference); higher = more antagonism (negative = synergy)
S. pneumoniae D39V = tested on: S. pneumoniae D39V
Method in brief: (§1)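 Fitness is OD595 at stationary-phase entry relative to the plate's robust no-drug mean, capped at 1. Single-drug fitness was inferred from combinations. The Bliss score is observed minus product-expected fitness, summarised by quartiles over technical, biological and donor/recipient replicates.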

B. subtilis 168 = tested on: B. subtilis 168
Method in brief: as §1

S. aureus Newman = tested on: S. aureus Newman
Method in brief: as §1

S. aureus DSM 20231 = tested on: S. aureus DSM 20231
Method in brief: as §1
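Further: first quartile when negative (synergy) and third quartile when positive (antagonism).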

Row | SMILES | Bliss interaction score (S. pneumoniae D39V; main component drawn) | Bliss interaction score (B. subtilis 168; main component drawn) | Bliss interaction score (S. aureus Newman; main component drawn) | Bliss interaction score (S. aureus DSM 20231; main component drawn) | Bliss interaction score (S. pneumoniae D39V) | Bliss interaction score (B. subtilis 168) | Bliss interaction score (S. aureus Newman) | Bliss interaction score (S. aureus DSM 20231)
1 | O=C1CN(/N=C/c2ccc([N+](=O)[O-])o2)C(=O)N1 [Nitrofurantoin] + CCCCCCCCCC(=O)N[C@@H]1[C@H]([C@@H]([C@H](O[C@H]1OC2=C3C=C4C=C2OC5=C(C=C(C=C5)[C@H]([C@H]6C(=O)N[C@@H](C7=C(C(=CC(=C7)O)OC8[C@H]([C@H]([C@@H]([C@H](O8)CO)O)O)O)C9=C(C=CC(=C9)[C@H](C(=O)N6)NC(=O)[C@@H]4NC(=O)[C@@H]1C2=CC(=CC(=C2)OC2=C(C=CC(=C2)[C@H](C(=O)N[C@H](CC2=CC(=C(O3)C=C2)Cl)C(=O)N1)N)O)O)O)C(=O)O)O[C@H]1[C@@H]([C@H]([C@@H]([C@H](O1)CO)O)O)NC(=O)C)Cl)CO)O)O [Teicoplanin] | -0.06 | -0.157 | -0.0914 | 0.0402 | – | – | – | –
2 | O=C1CN(/N=C/c2ccc([N+](=O)[O-])o2)C(=O)N1 [Nitrofurantoin] + CC[C@H]1OC(=O)[C@H](C)C(=O)[C@H](C)[C@@H](O[C@@H]2O[C@H](C)C[C@H](N(C)C)[C@H]2O)[C@](C)(OC)C[C@@H](C)C(=O)[C@H](C)[C@H]2N(CCCCn3cnc(-c4cccnc4)c3)C(=O)O[C@]12C [Telithromycin] | – | – | – | – | -0.293 | -0.128 | -0.0641 | -0.0398
3 | O=C1CN(/N=C/c2ccc([N+](=O)[O-])o2)C(=O)N1 [Nitrofurantoin] + CN[C@H](CC(C)C)C(=O)N[C@H]1C(=O)N[C@@H](CC(N)=O)C(=O)N[C@H]2C(=O)N[C@H]3C(=O)N[C@H](C(=O)N[C@H](C(=O)O)c4cc(O)cc(O)c4-c4cc3ccc4O)[C@H](O[C@H]3C[C@](C)(N)[C@@H](O)[C@H](C)O3)c3ccc(c(Cl)c3)Oc3cc2cc(c3O[C@@H]2O[C@H](CO)[C@@H](O)[C@H](O)[C@H]2O[C@H]2C[C@](C)(NCc3ccc(-c4ccc(Cl)cc4)cc3)[C@@H](O)[C@H](C)O2)Oc2ccc(cc2Cl)[C@H]1O [Oritavancin] | – | – | – | – | -0.0352 | 0.0189 | -0.118 | -0.0379
4 | O=C1CN(/N=C/c2ccc([N+](=O)[O-])o2)C(=O)N1 [Nitrofurantoin] + CO[C@@H]1[C@@H](OC(N)=O)[C@@H](O)[C@H](Oc2ccc3c(O)c(NC(=O)c4ccc(O)c(CC=C(C)C)c4)c(=O)oc3c2C)OC1(C)C [Novobiocin] | – | – | – | – | 0.0513 | 0.0731 | 0.0827 | 0.0482
5 | O=C1CN(/N=C/c2ccc([N+](=O)[O-])o2)C(=O)N1 [Nitrofurantoin] + COc1cc(Cc2cnc(N)nc2N)cc(OC)c1OC [Trimethoprim] | – | – | – | – | -0.553 | -0.181 | 0.0663 | -0.0418
6 | O=C1CN(/N=C/c2ccc([N+](=O)[O-])o2)C(=O)N1 [Nitrofurantoin] + Oc1cc(Cl)ccc1Oc1ccc(Cl)cc1Cl [Triclosan] | – | – | – | – | 0.0809 | -0.039 | 0.0328 | -0.014
7 | C/C(=C\C(=O)OCCCCCCCCC(=O)O)C[C@@H]1OC[C@H](C[C@@H]2O[C@H]2[C@@H](C)[C@H](C)O)[C@@H](O)[C@H]1O [Pseudomonic acid] + CC[C@H]1OC(=O)[C@H](C)C(=O)[C@H](C)[C@@H](O[C@@H]2O[C@H](C)C[C@H](N(C)C)[C@H]2O)[C@](C)(OC)C[C@@H](C)C(=O)[C@H](C)[C@H]2N(CCCCn3cnc(-c4cccnc4)c3)C(=O)O[C@]12C [Telithromycin] | – | – | – | – | -0.0569 | 0.0359 | -0.028 | 0.0119
8 | C/C(=C\C(=O)OCCCCCCCCC(=O)O)C[C@@H]1OC[C@H](C[C@@H]2O[C@H]2[C@@H](C)[C@H](C)O)[C@@H](O)[C@H]1O [Pseudomonic acid] + COc1cc(Cc2cnc(N)nc2N)cc(OC)c1OC [Trimethoprim] | – | – | – | – | -0.143 | 0.0595 | 0.0264 | 0.0182
9 | C/C(=C\C(=O)OCCCCCCCCC(=O)O)C[C@@H]1OC[C@H](C[C@@H]2O[C@H]2[C@@H](C)[C@H](C)O)[C@@H](O)[C@H]1O [Pseudomonic acid] + Oc1cc(Cl)ccc1Oc1ccc(Cl)cc1Cl [Triclosan] | – | – | – | – | 0.0696 | -0.0255 | -0.0174 | -0.0069
10 | CCCCCCCCCC(=O)N[C@H]1[C@H](Oc2c3cc4cc2Oc2ccc(cc2Cl)[C@@H](O[C@@H]2O[C@H](CO)[C@@H](O)[C@H](O)[C@H]2NC(C)=O)[C@@H]2NC(=O)[C@H](NC(=O)[C@@H]4NC(=O)[C@H]4NC(=O)[C@@H](Cc5ccc(c(Cl)c5)O3)NC(=O)[C@H](N)c3ccc(O)c(c3)Oc3cc(O)cc4c3)c3ccc(O)c(c3)-c3c(O[C@H]4O[C@H](CO)[C@@H](O)[C@H](O)[C@@H]4O)cc(O)cc3[C@@H](C(=O)O)NC2=O)O[C@H](CO)[C@@H](O)[C@@H]1O [Teicoplanin] + CC[C@H]1OC(=O)[C@H](C)C(=O)[C@H](C)[C@@H](O[C@@H]2O[C@H](C)C[C@H](N(C)C)[C@H]2O)[C@](C)(OC)C[C@@H](C)C(=O)[C@H](C)[C@H]2N(CCCCn3cnc(-c4cccnc4)c3)C(=O)O[C@]12C [Telithromycin] | 0.0575 | 0.0347 | 0.0616 | 0.0617 | – | – | – | –
11 | CCCCCCCCCC(=O)N[C@H]1[C@H](Oc2c3cc4cc2Oc2ccc(cc2Cl)[C@@H](O[C@@H]2O[C@H](CO)[C@@H](O)[C@H](O)[C@H]2NC(C)=O)[C@@H]2NC(=O)[C@H](NC(=O)[C@@H]4NC(=O)[C@H]4NC(=O)[C@@H](Cc5ccc(c(Cl)c5)O3)NC(=O)[C@H](N)c3ccc(O)c(c3)Oc3cc(O)cc4c3)c3ccc(O)c(c3)-c3c(O[C@H]4O[C@H](CO)[C@@H](O)[C@H](O)[C@@H]4O)cc(O)cc3[C@@H](C(=O)O)NC2=O)O[C@H](CO)[C@@H](O)[C@@H]1O [Teicoplanin] + Oc1cc(Cl)ccc1Oc1ccc(Cl)cc1Cl [Triclosan] | -0.106 | 0.0943 | -0.0356 | 0.0695 | – | – | – | –
